Data on 14 compounds can be found in ChEMBL document CHEMBL1124893, “1,2,4-Triazolo[4,3-a]pyrazine derivatives with human renin inhibitory activity. 2. Synthesis, biological properties and molecular modeling of hydroxyethylene isostere derivatives” (J Med Chem, 1990).

pIC50: −log10 of the molar value.

The experiment deals with T1, Renin (Homo sapiens, UniProt P00797).
T1 sequence (P00797 whole entry): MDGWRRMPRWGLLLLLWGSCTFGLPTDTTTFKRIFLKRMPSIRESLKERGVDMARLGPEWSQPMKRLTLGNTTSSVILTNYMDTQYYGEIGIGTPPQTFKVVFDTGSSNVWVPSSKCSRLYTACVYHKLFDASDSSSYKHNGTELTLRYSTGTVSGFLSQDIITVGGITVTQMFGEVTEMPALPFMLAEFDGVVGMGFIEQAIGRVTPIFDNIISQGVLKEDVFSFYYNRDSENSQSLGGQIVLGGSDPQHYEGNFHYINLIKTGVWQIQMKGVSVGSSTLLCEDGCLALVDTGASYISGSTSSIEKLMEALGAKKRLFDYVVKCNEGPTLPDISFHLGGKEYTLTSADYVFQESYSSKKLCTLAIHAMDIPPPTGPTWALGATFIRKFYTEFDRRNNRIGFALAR
As to the kind of experiment: Inhibition of human renin.
As usually defined, the pIC50 is the negative decadic logarithm of the IC50, by convention in mol/L. For `CCCc1nc(-c2cccnc2)cn2c(C(Cc3cccnc3)C(=O)NC(CC3CCCCC3)C(O)CC(C(=O)NCCCCO)C(C)C)nnc12` (centres undefined), the pIC50 was 9.52.

`CCCCNC(=O)C(CC(O)C(CC1CCCCC1)NC(=O)Cc1nnc2c(CC(C)C)nc(-c3ccccc3)cn12)C(C)C` (centres undefined): the pIC50 was 7.52.

With `CCCc1nc(-c2cccnc2)cn2c(C(Cc3cccnc3)C(=O)NC(CC3CCCCC3)C(O)CC(C(=O)N3CCOCC3)C(C)C)nnc12` (centres undefined), the pIC50 was 7.19.

Compound `CCCCNC(=O)[C@@H](CC(O)C(CC1CCCCC1)NC(=O)Cc1nnc2c(CCC)nc(-c3cccnc3)cn12)C(C)C` (some centres undefined) had a pIC50 of 7.59.

On to `CCCCN(C)C(=O)C(CC(O)C(CC1CCCCC1)NC(=O)C(Cc1cccnc1)c1nnc2c(CCC)nc(-c3cccnc3)cn12)C(C)C` (centres undefined), for which the pIC50 is 7.39.

`CCCc1nc(-c2cccnc2)cn2c(C(Cc3cccnc3)C(=O)NC(CC3CCCCC3)C(O)CC(C(=O)NCCN3CCNCC3)C(C)C)nnc12` (centres undefined): the pIC50 was 9.22.

Consider `CCCCNC(=O)C(CC(O)C(CC1CCCCC1)NC(=O)C(Cc1cccnc1)c1nnc2c(CCC)nc(-c3cccnc3)cn12)C(C)C` (centres undefined), for which the pIC50 is 9.70. Against the preceding compound, the pIC50 is 0.48 log units higher.

As to `CCCCNC(=O)C(CC(O)C(CC1CCCCC1)NC(=O)Cc1nnc2c(CCC)nc(-c3cccnc3)cn12)C(C)C` (centres undefined), the pIC50 is 8.57.

As for `CCCc1nc(-c2cccnc2)cn2c(C(Cc3cccnc3)C(=O)NC(CC3CCCCC3)C(O)CC(C(=O)NCCN3CCOCC3)C(C)C)nnc12` (centres undefined), the pIC50 is 9.40.

Turning to `CCCc1nc(-c2cccnc2)cn2c(C(Cc3cccnc3)C(=O)NC(CC3CCCCC3)C(O)CC(C(=O)NCCN)C(C)C)nnc12` (centres undefined), the pIC50 was 7.11. Against the preceding compound, the pIC50 is 2.29 log units lower.

Turning to `CCCc1nc(-c2cccnc2)cn2c(C(Cc3cccnc3)C(=O)NC(CC3CCCCC3)C(O)CC(C(=O)NCc3ccccn3)C(C)C)nnc12` (centres undefined), the pIC50 is 9.22.

In the case of `CCCc1nc(-c2cccnc2)cn2c(C(Cc3cccnc3)C(=O)NC(CC3CCCCC3)C(O)CC(C(=O)N(C)CCN(C)C)C(C)C)nnc12` (centres undefined), the pIC50 is 6.67. This pIC50 is 2.55 log units lower than that of the compound before.

As for `CCCc1nc(-c2cccnc2)cn2c(C(Cc3cccnc3)C(=O)NC(CC3CCCCC3)C(O)CC(C(=O)NCCN(C)C)C(C)C)nnc12` (single isomer, unassigned; less polar), the pIC50 is 8.07.

Take `CCCc1nc(-c2cccnc2)cn2c(C(Cc3cccnc3)C(=O)NC(CC3CCCCC3)C(O)CC(C(=O)NCCN(C)C)C(C)C)nnc12` (stereo in doubt; e): the pIC50 is 9.52.
